Reference: patent publication US20200181132A1, “QUINOXALINE AND PYRIDOPYRAZINE DERIVATIVES AS PI3K-BETA INHIBITORS” (JANSSEN PHARMACEUTICA NV, priority 2017, published 2020)
Where two headings read alike, the source gives them in different places.

What was measured:
[1] = molecular target: T1, PIK3Cα_h (Homo sapiens, UniProt P42336); assay: Enzyme binding assay (KINOMEscan), PIK3Cα; details: DiscoveRx
T1 construct: purchased DiscoveRx Corporation
Experimental: (§1) Enzyme Binding Assays (KINOMEscan®)
(§2) Kinase enzyme binding affinities of compounds disclosed herein were determined using the KINOMEscan technology performed by DiscoveRx Corporation, San Diego, Calif., USA (www.kinomescan.com). Table A reports the obtained Kd values (nM), with the Kd being the inhibitor binding constant: […]

[2] = tested on: phosphorylation of Akt at Ser473 in PC-3 cells; assay: Cellular assay: phospho-Akt (Ser473) MSD ELISA in PC-3 cells; format: cell-based; details: 60 min incubation with compound, read-out: IC50 pAkt_S473
Experimental: (§3) Cellular activity of PI3Kβ inhibitors was determined by quantifying the phosphorylation of Akt in PC-3 cells. Akt phosphorylated at Ser473 and Thr308 were measured using an enzyme-linked immunosorbent assay (ELISA; Meso Scale Discovery (MSD), Gaithersburg, Md.) and specific primary antibodies from MSD.
(§4) On day 1, PC3 cells (ATCC # […]) were seeded into PerkinElmer MW96 plates at 25.000 cells per well, in 75 μl complete culture medium (DMEM high glucose, AQmedia™, D0819, Sigma-Aldrich) containing 10% heat inactivated FCS and incubated at 37° C., 5% CO2 during 24 hours. On day 2, compound or DMSO (0.3%) was added and cells were further incubated for 60 min at 37° C., 5% CO2 in a total volume of 100 μl of medium.
(§5) The phosphoprotein assay was executed according to vendor instructions in the Phospho-Akt (Ser473) Assay Whole Cell Lysate Kit (MSD # K15100D-3) and the Phospho-Akt (Thr308) Assay Whole Cell Lysate Kit (MSD # K151DYD-3) using the lysis, blocking and wash buffer provided.
(§6) Briefly, at the end of the cell treatment period, media were removed by aspiration and adherent cells were lysed in 50 μl ice-cold lysis buffer. MSD plates are supplied pre-coated with capture antibodies for Phospho-Akt (Ser473 and Thr308). After blocking, lysates from tissue culture plates were added and plates were washed. Then, a solution containing the detection antibody (anti-total Akt conjugated with an electrochemiluminescent compound-MSD Sulfo-tag label) was added. The signals were detected using an MSD SECTOR Imager 6000 and are proportional to the phospho-Akt titres.
(§7) Data were processed. The percentage of inhibition was plotted against the log concentration of test compounds, and the sigmoidal log concentration-effect curve of best fit was calculated by nonlinear regression analysis. From these concentration-response curves, the IC50 values were calculated. Five concentrations were used for curve fitting.

[3] = tested on: phosphorylation of Akt at Thr308 in PC-3 cells; assay: Cellular assay: phospho-Akt (Thr308) MSD ELISA in PC-3 cells; format: cell-based; details: 60 min incubation with compound, read-out: IC50 pAkt_Thr308
Experimental: as §3, §4, §5, §6, §7

[4] = molecular target: T2, PIK3Cδ_h (Homo sapiens, UniProt O00329); assay: Enzyme binding assay (KINOMEscan), PIK3Cδ; details: DiscoveRx
T2 construct: purchased DiscoveRx Corporation
T2 sequence (O00329 1-1044): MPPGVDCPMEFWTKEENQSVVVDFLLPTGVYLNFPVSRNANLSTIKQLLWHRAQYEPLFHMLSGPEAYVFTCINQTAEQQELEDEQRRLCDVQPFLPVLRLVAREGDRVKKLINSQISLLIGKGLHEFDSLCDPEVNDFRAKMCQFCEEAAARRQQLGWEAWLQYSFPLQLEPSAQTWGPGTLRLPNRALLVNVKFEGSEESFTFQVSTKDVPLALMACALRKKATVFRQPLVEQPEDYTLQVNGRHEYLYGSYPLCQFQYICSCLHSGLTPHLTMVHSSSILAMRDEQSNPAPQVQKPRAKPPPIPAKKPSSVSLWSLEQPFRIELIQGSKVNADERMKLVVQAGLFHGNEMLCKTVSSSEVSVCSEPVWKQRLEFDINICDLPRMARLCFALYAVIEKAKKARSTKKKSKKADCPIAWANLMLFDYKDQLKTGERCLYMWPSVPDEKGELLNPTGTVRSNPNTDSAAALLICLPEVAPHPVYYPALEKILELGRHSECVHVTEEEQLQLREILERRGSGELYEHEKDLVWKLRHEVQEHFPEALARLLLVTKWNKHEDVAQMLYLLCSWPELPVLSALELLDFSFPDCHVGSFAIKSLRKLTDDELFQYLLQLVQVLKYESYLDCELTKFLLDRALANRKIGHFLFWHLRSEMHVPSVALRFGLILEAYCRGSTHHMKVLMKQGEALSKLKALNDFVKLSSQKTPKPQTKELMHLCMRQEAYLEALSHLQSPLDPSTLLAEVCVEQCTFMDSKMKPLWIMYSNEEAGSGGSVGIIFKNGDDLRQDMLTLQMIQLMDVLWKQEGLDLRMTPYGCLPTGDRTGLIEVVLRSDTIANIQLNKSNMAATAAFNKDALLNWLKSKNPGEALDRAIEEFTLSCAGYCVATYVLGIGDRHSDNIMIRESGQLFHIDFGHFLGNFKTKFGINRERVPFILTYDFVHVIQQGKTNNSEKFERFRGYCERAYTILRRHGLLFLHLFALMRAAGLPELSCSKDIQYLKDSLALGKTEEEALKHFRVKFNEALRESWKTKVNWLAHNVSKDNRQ
Experimental: as §1, §2

[5] = molecular target: T3, PIK3Cγ_h (Homo sapiens, UniProt P48736); assay: Enzyme binding assay (KINOMEscan), PIK3Cγ; details: DiscoveRx
T3 construct: purchased DiscoveRx Corporation
T3 sequence (P48736 whole entry): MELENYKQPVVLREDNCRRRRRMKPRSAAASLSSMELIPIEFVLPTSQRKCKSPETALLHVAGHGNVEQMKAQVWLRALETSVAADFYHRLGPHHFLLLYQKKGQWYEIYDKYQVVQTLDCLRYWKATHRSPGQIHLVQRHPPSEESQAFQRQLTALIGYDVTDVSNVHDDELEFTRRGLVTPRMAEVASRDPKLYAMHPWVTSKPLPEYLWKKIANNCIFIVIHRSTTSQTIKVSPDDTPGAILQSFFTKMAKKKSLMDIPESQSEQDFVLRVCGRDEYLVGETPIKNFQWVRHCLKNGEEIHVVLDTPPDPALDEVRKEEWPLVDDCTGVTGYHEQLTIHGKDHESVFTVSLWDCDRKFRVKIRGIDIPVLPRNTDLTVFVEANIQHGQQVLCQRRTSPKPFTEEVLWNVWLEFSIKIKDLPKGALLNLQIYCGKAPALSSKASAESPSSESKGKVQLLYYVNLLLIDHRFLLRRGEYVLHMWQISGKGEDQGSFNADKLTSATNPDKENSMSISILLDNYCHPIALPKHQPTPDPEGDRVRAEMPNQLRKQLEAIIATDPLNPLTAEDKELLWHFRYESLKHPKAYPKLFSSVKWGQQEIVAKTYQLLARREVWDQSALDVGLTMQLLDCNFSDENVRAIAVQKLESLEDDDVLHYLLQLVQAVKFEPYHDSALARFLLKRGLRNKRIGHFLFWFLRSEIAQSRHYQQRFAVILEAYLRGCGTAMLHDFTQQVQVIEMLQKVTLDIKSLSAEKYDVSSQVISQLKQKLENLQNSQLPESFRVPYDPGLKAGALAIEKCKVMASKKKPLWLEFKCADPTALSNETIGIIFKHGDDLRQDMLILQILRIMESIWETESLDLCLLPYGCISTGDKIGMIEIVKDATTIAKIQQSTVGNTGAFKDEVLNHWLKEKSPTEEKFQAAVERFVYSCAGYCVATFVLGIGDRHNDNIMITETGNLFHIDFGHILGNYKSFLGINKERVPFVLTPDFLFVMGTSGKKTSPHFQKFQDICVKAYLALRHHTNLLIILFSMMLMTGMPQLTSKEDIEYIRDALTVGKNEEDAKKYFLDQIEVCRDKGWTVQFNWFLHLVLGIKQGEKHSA
Experimental: as §1, §2

[6] = molecular target: T4, MTOR_h (Homo sapiens, UniProt P42345); assay: Enzyme binding assay (KINOMEscan), MTOR; details: DiscoveRx
T4 construct: purchased DiscoveRx Corporation
Experimental: as §1, §2

[7] = molecular target: T5, PIK3Cβ_h (Homo sapiens, UniProt P42338); assay: Enzyme binding assay (KINOMEscan), PIK3Cβ; details: DiscoveRx
T5 construct: purchased DiscoveRx Corporation
T5 sequence (P42338 whole entry): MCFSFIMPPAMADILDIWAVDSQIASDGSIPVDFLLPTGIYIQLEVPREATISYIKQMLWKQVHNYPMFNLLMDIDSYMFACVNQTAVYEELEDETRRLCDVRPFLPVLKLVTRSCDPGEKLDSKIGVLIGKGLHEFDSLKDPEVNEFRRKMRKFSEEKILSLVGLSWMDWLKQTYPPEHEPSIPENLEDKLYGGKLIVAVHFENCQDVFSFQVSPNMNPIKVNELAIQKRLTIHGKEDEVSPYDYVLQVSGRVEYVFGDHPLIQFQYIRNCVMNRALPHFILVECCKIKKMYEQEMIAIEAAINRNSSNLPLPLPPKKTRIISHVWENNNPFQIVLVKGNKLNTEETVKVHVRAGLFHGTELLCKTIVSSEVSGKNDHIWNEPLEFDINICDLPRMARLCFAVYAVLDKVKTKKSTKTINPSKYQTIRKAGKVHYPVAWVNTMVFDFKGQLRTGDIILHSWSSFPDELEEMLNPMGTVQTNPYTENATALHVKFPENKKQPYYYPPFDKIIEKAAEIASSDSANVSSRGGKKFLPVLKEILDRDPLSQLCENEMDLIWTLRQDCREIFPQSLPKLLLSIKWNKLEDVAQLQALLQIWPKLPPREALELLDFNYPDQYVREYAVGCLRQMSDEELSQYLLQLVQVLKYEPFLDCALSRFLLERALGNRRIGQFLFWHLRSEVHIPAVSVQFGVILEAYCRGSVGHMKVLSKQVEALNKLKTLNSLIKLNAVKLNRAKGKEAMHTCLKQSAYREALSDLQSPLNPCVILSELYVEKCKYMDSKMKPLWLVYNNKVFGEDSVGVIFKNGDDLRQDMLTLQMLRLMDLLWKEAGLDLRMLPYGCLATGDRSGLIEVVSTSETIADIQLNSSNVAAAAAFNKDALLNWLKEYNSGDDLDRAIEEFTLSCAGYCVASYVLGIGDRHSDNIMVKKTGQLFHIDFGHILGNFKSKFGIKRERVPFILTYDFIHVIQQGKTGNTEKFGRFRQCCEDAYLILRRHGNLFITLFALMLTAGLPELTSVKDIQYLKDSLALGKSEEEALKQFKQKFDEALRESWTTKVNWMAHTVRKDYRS
Experimental: as §1, §2

T1 sequence (P42336 whole entry): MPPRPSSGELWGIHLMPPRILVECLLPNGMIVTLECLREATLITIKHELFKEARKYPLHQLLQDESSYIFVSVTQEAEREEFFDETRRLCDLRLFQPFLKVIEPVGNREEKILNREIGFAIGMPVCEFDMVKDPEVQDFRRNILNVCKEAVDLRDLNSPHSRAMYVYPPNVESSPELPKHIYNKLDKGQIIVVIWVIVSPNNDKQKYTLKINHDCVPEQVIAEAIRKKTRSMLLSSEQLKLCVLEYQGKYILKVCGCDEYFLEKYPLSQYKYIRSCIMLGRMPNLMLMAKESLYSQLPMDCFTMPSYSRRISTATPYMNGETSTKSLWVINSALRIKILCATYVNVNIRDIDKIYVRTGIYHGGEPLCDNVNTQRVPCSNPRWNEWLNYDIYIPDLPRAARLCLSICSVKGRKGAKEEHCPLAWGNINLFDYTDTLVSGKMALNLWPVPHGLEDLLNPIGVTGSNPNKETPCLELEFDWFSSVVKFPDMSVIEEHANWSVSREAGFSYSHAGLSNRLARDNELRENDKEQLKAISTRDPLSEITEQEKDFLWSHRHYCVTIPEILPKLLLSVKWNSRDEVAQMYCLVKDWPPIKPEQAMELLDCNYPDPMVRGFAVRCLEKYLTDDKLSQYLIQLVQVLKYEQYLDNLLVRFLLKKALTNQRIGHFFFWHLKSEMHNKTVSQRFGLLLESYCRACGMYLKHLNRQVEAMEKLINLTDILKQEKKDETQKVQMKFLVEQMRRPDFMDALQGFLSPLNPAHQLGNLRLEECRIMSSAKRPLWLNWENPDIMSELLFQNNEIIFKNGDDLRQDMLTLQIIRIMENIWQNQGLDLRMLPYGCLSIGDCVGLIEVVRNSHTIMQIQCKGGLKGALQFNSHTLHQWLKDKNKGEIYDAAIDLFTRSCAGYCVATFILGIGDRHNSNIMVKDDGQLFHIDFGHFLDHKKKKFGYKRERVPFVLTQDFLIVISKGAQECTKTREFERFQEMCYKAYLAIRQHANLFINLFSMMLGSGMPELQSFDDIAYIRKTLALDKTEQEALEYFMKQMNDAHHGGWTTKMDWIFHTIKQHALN

Compound | Kd [1] [nM] | IC50 ([2]; Homo sapiens, PC-3, 1 h) [nM] | IC50 [3] [nM] | Kd [4] [nM] | melting point [°C] | Kd [5] [nM] | Kd [6] [nM] | Kd [7] [nM] | IC50 [2] [nM] | IC50 ([3]; Homo sapiens, PC-3, 1 h) [nM]
CN(C)C(=O)c1cc(C2CCCN2c2cncc(F)c2)c2nc(N3CCOCC3)cnc2c1 (centres unmarked) [Compound 41] | 209 | ~17 |  | 52 |  | 1050 | > 30200 | 0.8 |  | 3
CN(C)CCN(C)C(=O)c1cc(C2CCCN2c2cncc(F)c2)c2nc(N3CCOCC3)cnc2c1 (centres unmarked) [Compound 42] | 646 | 2 |  | 46 |  | 2630 | > 30200 | 0.5 |  | 1
CN(C)CCNC(=O)c1cc(C2CCCN2c2cc(Cl)cc(Cl)n2)c2nc(N3CCOCC3)cnc2c1 (centres unmarked) [Compound 45] | 479 | 7 |  | 32 |  | 457 | 12300 | 0.3 |  | 4
CN(C)CCNC(=O)c1cc(C2CCCN2c2ccnc(Cl)c2)c2nc(N3CCOCC3)cnc2c1 (centres unmarked) [Compound 46] | 13500 | 102 |  | 550 |  | 19500 | > 30200 | 2 |  | 66
O=C(NCCO)c1cc(C2CCCN2c2ccnc(Cl)c2)c2nc(N3CCOCC3)cnc2c1 (centres unmarked) [Compound 47] | 17000 | > 513 |  | 1950 |  | 20900 | 21900 | 32 |  | > 513
CNCCOCCN(C)C(=O)c1cc(C2CCCN2c2ccnc(Cl)c2)c2nc(N3CCOCC3)cnc2c1 (centres unmarked) [Compound 49] | > 30200 | > 513 |  | 2460 |  | > 30200 | > 30200 | 28 |  | > 513
CN(C)CCNC(=O)c1cc(C2CCCN2c2cncc(Cl)n2)c2nc(N3CCOCC3)cnc2c1 (centres unmarked) [Compound 50] | 1660 | 19 |  | 162 |  | 3310 | > 30200 | 0.9 |  | 12

More lines, now with the values ahead:

Kd [1] [nM] | IC50 ([2]; Homo sapiens, PC-3, 1 h) [nM] | IC50 [3] [nM] | Kd [4] [nM] | melting point [°C] | Kd [5] [nM] | Kd [6] [nM] | Kd [7] [nM] | IC50 [2] [nM] | IC50 ([3]; Homo sapiens, PC-3, 1 h) [nM] | Compound
2820 | > 513 | ~72 | 1480 | 160 | 16600 | > 30200 | 9 |  |  | CC(Nc1cncc(F)c1)c1cc(C(=O)N2CC3(C2)CS(=O)(=O)C3)cc2ncc(N3CCOCC3)nc12 (single isomer, unassigned) [Compound 31]
> 30200 |  | > 513 | 22400 | 180 | > 30200 | > 30200 | 5490 | > 513 |  | CC(Nc1cncc(F)c1)c1cc(C(=O)N2CC3(C2)CS(=O)(=O)C3)cc2ncc(N3CCOCC3)nc12 (single isomer, unassigned) [Compound 32]
2190 |  | 7 | 166 | 194 | 3890 | > 30200 | 0.4 | 14 |  | CC(Nc1cncc(F)c1)c1cc(C(=O)NCCN(C)C)cc2ncc(N3CCOCC3)nc12 (single isomer, unassigned) [Compound 34]
15500 |  | > 513 | 1440 | 190 | 4790 | 12000 | 8 | > 513 |  | CC(Nc1cncc(F)c1)c1cc(C(=O)NCCN(C)C)cc2ncc(N3CCOCC3)nc12 (single isomer, unassigned) [Compound 35]
19100 |  | > 513 | 31600 |  | > 30200 | 19500 | 1070 | > 513 |  | CN(C)CCNC(=O)c1cc(C2CCCN2c2ccnc(F)c2)c2nc(N3CCOCC3)cnc2c1 (single isomer, unassigned) [Compound 39]
 | 2 |  | 120 |  | 1050 | > 30200 | 0.2 |  | 2 | CN(C)CCNC(=O)c1cc(C2CCCN2c2cncc(F)c2)c2nc(N3CCOCC3)cnc2c1 (single isomer, unassigned) [Compound 40]
 |  |  |  | 240 |  |  |  |  |  | COC(=O)c1cc(C(C)Nc2cncc(F)c2)c2nc(N3CCOCC3)cnc2c1 (centres unmarked) [Compound 6]
 | > 513 |  |  | 198 |  |  |  |  | > 513 | O=C(NCCO)c1cc(NCc2cncc(F)c2)c2nc(N3CCOCC3)cnc2c1 [Compound 29]
9120 | > 513 |  | 3470 |  | > 30200 | > 30200 | 20 |  | > 513 | CN(C)CCNC(=O)c1cc(C2CCCN2c2cncc(Br)n2)c2nc(N3CCOCC3)cnc2c1 (centres unmarked) [Compound 51]
 | > 513 |  |  |  |  |  |  |  | > 513 | CN(C)CCNC(=O)c1cc(C2CCCN2c2cncc(F)n2)c2nc(N3CCOCC3)cnc2c1 (centres unmarked) [Compound 52]
